#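 Assay format: 96-well plates, 48-hour exposure. The concentration for 50% growth inhibition is given as GI50. TGI: total growth inhibition.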
# Assays:
# Assay in all cases: growth of human tumour cells (NCI), 48 h
# 786-0 renal = tested on: 786-0 renal
# A498 renal = tested on: A498 renal
# A549 NSCLC = tested on: A549 NSCLC
# ACHN renal = tested on: ACHN renal
# BT-549 breast = tested on: BT-549 breast
# CAKI-1 renal = tested on: CAKI-1 renal
# CCRF-CEM leukemia = tested on: CCRF-CEM leukemia
# COLO 205 colon = tested on: COLO 205 colon
# DU-145 prostate = tested on: DU-145 prostate
# EKVX NSCLC = tested on: EKVX NSCLC
# HCC-2998 colon = tested on: HCC-2998 colon
# HCT-116 colon = tested on: HCT-116 colon
# HCT-15 colon = tested on: HCT-15 colon
# HL-60(TB) leukemia = tested on: HL-60(TB) leukemia
# HOP-92 NSCLC = tested on: HOP-92 NSCLC
# HS 578T breast = tested on: HS 578T breast
# HT29 colon = tested on: HT29 colon
# IGROV1 ovarian = tested on: IGROV1 ovarian
# K-562 leukemia = tested on: K-562 leukemia
# KM12 colon = tested on: KM12 colon
# LOX IMVI melanoma = tested on: LOX IMVI melanoma
# M14 melanoma = tested on: M14 melanoma
# MCF7 breast = tested on: MCF7 breast
# MDA-MB-231 breast = tested on: MDA-MB-231 breast
# MDA-MB-435 = tested on: MDA-MB-435
# MOLT-4 leukemia = tested on: MOLT-4 leukemia
# NCI-H226 lung = tested on: NCI-H226 lung
# NCI-H23 lung = tested on: NCI-H23 lung
# NCI-H460 lung = tested on: NCI-H460 lung
# NCI-H522 lung = tested on: NCI-H522 lung
# OVCAR-3 ovarian = tested on: OVCAR-3 ovarian
# OVCAR-4 ovarian = tested on: OVCAR-4 ovarian
# OVCAR-5 ovarian = tested on: OVCAR-5 ovarian
# PC-3 prostate = tested on: PC-3 prostate
# RPMI-8226 leukemia = tested on: RPMI-8226 leukemia
# RXF 393 renal = tested on: RXF 393 renal
# SF-268 CNS = tested on: SF-268 CNS
# SF-295 CNS = tested on: SF-295 CNS
# SF-539 CNS = tested on: SF-539 CNS
# SK-MEL-2 melanoma = tested on: SK-MEL-2 melanoma
# SK-MEL-28 melanoma = tested on: SK-MEL-28 melanoma
# SK-MEL-5 melanoma = tested on: SK-MEL-5 melanoma
# SK-OV-3 ovarian = tested on: SK-OV-3 ovarian
# SN12C renal = tested on: SN12C renal
# SNB-19 CNS = tested on: SNB-19 CNS
# SNB-75 CNS = tested on: SNB-75 CNS
# SR leukemia = tested on: SR leukemia
# SW-620 colon = tested on: SW-620 colon
# TK-10 renal = tested on: TK-10 renal
# U251 CNS = tested on: U251 CNS
# UACC-257 melanoma = tested on: UACC-257 melanoma
# UACC-62 melanoma = tested on: UACC-62 melanoma
# UO-31 renal = tested on: UO-31 renal
structure (smiles),measurement,setting,value
CCN1CCN(Cc2ccc(NC(=O)Nc3nc(-c4cc(OC)c(OC)c(OC)c4)cs3)cc2C(F)(F)F)CC1,GI50,786-0 renal,1660 nM
same,TGI,786-0 renal,3150 nM
same,GI50,A498 renal,1960 nM
same,TGI,A498 renal,5480 nM
same,GI50,A549 NSCLC,1960 nM
same,TGI,A549 NSCLC,4450 nM
same,GI50,ACHN renal,1910 nM
same,TGI,ACHN renal,4100 nM
same,GI50,BT-549 breast,1910 nM
same,TGI,BT-549 breast,4580 nM
same,GI50,CAKI-1 renal,1910 nM
same,TGI,CAKI-1 renal,4900 nM
same,GI50,CCRF-CEM leukemia,1870 nM
same,TGI,CCRF-CEM leukemia,6070 nM
same,GI50,COLO 205 colon,1580 nM
same,TGI,COLO 205 colon,3200 nM
same,GI50,DU-145 prostate,2070 nM
same,TGI,DU-145 prostate,4920 nM
same,GI50,EKVX NSCLC,1810 nM
same,TGI,EKVX NSCLC,4250 nM
same,GI50,HCC-2998 colon,1800 nM
same,TGI,HCC-2998 colon,3400 nM
same,GI50,HCT-116 colon,1480 nM
same,TGI,HCT-116 colon,2840 nM
same,GI50,HCT-15 colon,1410 nM
same,TGI,HCT-15 colon,3550 nM
same,GI50,HL-60(TB) leukemia,1940 nM
same,TGI,HL-60(TB) leukemia,4250 nM
same,GI50,HOP-92 NSCLC,1230 nM
same,TGI,HOP-92 NSCLC,4230 nM
same,GI50,HS 578T breast,1650 nM
same,TGI,HS 578T breast,5040 nM
same,GI50,HT29 colon,390 nM
same,TGI,HT29 colon,1480 nM
same,GI50,IGROV1 ovarian,1930 nM
same,TGI,IGROV1 ovarian,4590 nM
same,GI50,K-562 leukemia,420 nM
same,TGI,K-562 leukemia,1920 nM
same,GI50,KM12 colon,1650 nM
same,TGI,KM12 colon,3350 nM
same,GI50,LOX IMVI melanoma,2180 nM
same,TGI,LOX IMVI melanoma,7140 nM
same,GI50,M14 melanoma,1580 nM
same,TGI,M14 melanoma,3160 nM
same,GI50,MCF7 breast,1440 nM
same,TGI,MCF7 breast,3020 nM
same,GI50,MDA-MB-231 breast,1600 nM
same,TGI,MDA-MB-231 breast,3460 nM
same,GI50,MDA-MB-435,1500 nM
same,TGI,MDA-MB-435,2820 nM
same,GI50,MOLT-4 leukemia,1290 nM
same,TGI,MOLT-4 leukemia,3690 nM
same,GI50,NCI-H226 lung,1680 nM
same,TGI,NCI-H226 lung,3820 nM
same,GI50,NCI-H23 lung,1690 nM
same,TGI,NCI-H23 lung,3590 nM
same,GI50,NCI-H460 lung,1650 nM
same,TGI,NCI-H460 lung,3200 nM
same,GI50,NCI-H522 lung,1650 nM
same,TGI,NCI-H522 lung,3130 nM
same,GI50,OVCAR-3 ovarian,2280 nM
same,TGI,OVCAR-3 ovarian,6890 nM
same,GI50,OVCAR-4 ovarian,1470 nM
same,TGI,OVCAR-4 ovarian,5130 nM
same,GI50,OVCAR-5 ovarian,1620 nM
same,TGI,OVCAR-5 ovarian,3440 nM
same,GI50,PC-3 prostate,1640 nM
same,TGI,PC-3 prostate,6990 nM
same,GI50,RPMI-8226 leukemia,1630 nM
same,TGI,RPMI-8226 leukemia,4240 nM
same,GI50,RXF 393 renal,1410 nM
same,TGI,RXF 393 renal,2840 nM
same,GI50,SF-268 CNS,1870 nM
same,TGI,SF-268 CNS,5760 nM
same,GI50,SF-295 CNS,1550 nM
same,TGI,SF-295 CNS,3130 nM
same,GI50,SF-539 CNS,1690 nM
same,TGI,SF-539 CNS,3120 nM
same,GI50,SK-MEL-2 melanoma,1900 nM
same,TGI,SK-MEL-2 melanoma,3610 nM
same,GI50,SK-MEL-28 melanoma,1650 nM
same,TGI,SK-MEL-28 melanoma,3000 nM
same,GI50,SK-MEL-5 melanoma,1670 nM
same,TGI,SK-MEL-5 melanoma,3040 nM
same,GI50,SK-OV-3 ovarian,1710 nM
same,TGI,SK-OV-3 ovarian,3850 nM
same,GI50,SN12C renal,1450 nM
same,TGI,SN12C renal,3190 nM
same,GI50,SNB-19 CNS,1750 nM
same,TGI,SNB-19 CNS,3430 nM
same,GI50,SNB-75 CNS,1190 nM
same,TGI,SNB-75 CNS,3910 nM
same,GI50,SR leukemia,1200 nM
same,TGI,SR leukemia,3080 nM
same,GI50,SW-620 colon,1620 nM
same,TGI,SW-620 colon,3310 nM
same,GI50,TK-10 renal,1950 nM
same,TGI,TK-10 renal,4250 nM
same,GI50,U251 CNS,1370 nM
same,TGI,U251 CNS,2810 nM
same,GI50,UACC-257 melanoma,1690 nM
same,TGI,UACC-257 melanoma,3080 nM
same,GI50,UACC-62 melanoma,1680 nM
same,TGI,UACC-62 melanoma,3180 nM
same,GI50,UO-31 renal,1360 nM
same,TGI,UO-31 renal,3780 nM

# From PubChem BioAssay (NCI)
